Read-outs that look alike come from different tables or passages of the source.
How the values were obtained:
[1] = molecular target: T1, PD-L1 (Homo sapiens, UniProt Q9NZQ7); experiment: PD-L1 relative quantification by flow cytometry in HT-29; format: cell-based; set-up: endogenous in cells; host or cells: HT-29; conditions: 24 h; for Total PD-L1 (%): relative to DMSO control = 100; for inhibition at 20 µM: read-out: inhibition rate of PD-L1
Description: To assess the effect of the selected compounds on the biological targets PD-L1 and VEFGR-2, we performed the study on both cancer cell lines HT-29 and A-549 and by flow cytometry technique. […] For these assays, cells were incubated for 24 h in the presence of the corresponding compounds at 20 µM concentration.
(§1) To study the effect of the compounds on every biological target in cancer cell lines, the compounds were used at 20 µM dose.
(§2) For the assay, 10^5 cells per well were incubated for 24 h with the corresponding dose of the tested compound in a total volume of 500 μL of their growth media.
(§3) On the one hand, to detect total PD-L1 and VEGFR-2, after the cell treatments, they were collected and fixed with 4% in PBS paraformaldehyde. After fixation, a treatment with 0.5% in PBS TritonTM X-100 was performed, and finally, cells were stained with FITC Mouse monoclonal Anti-Human VEGFR-2 (ab184903) and Alexa Fluor® 647 Rabbit monoclonal Anti-PD-L1 (ab215251).
(§4) On the other hand, to detect membrane PD-L1 and VEGFR-2, the process was the same, avoiding the treatment with 0.5% in PBS TritonTM X-100 step.

[2] = tested on: HT-29 (colon adenocarcinoma); experiment: MTT cell proliferation assay, HT-29; format: cell-based, human; conditions: for IC50: Homo sapiens, read-out: IC50 HT-29; for SI (HT-29) (IC50HEK293/IC50HT-29): selectivity index
Description: (§5) The 3-(4,5-dimethylthiazol-2-yl)-2,5-diphenyltetrazolium bromide (MTT; Sigma Chemical Co.) dye reduction assay in 96-well microplates was used. […] After that, the supernatant was discarded and replaced by 100 µL of DMSO to dissolve formazan crystals. The absorbance was then read at 550 nm by spectrophotometry. For all concentrations of compound, cell viability was expressed as the percentage of the ratio between the mean absorbance of treated cells and the mean absorbance of untreated cells. Three independent experiments were performed, and the IC50 values (i.e., concentration half inhibiting cell proliferation) were graphically determined using GraphPad Prism 4 software.

[3] = molecular target: T1, PD-L1; experiment: PD-L1 relative quantification by flow cytometry in MCF-7; format: cell-based; set-up: endogenous in cells; host or cells: MCF-7; conditions: MCF-7, 20 µM, 24 h; for % PD-L1 Memb. / % PD-L1 Total: control = 100
Description: In view of the good results obtained for these selected compounds, we decided to extend the study to a third cancer cell line, MCF-7 (Human breast cancer adenocarcinoma). First, we determined the IC50 values of the derivatives and their SI indexes (see Table 4). Then, we determined the effect of the selected compounds on the biological targets, PD-L1 and VEGFR-2, by flow cytometry. […] As usually, the assay was performed at a concentration of 20 µM for 24 h.
as §1, §2, §3, §4

[4] = tested on: MCF-7 (Human breast cancer adenocarcinoma); experiment: MTT cell proliferation assay, MCF-7; format: cell-based; conditions: for IC50: Homo sapiens; for SI (MCF-7): selectivity index vs HEK-293
Description: as §5

[5] = tested on: CD11b; experiment: CD11b relative quantification by flow cytometry in co-cultured THP-1; format: cell-based, human; conditions: 20 μM; for % CD11b: related to non-treated cells; for reduction of CD11b: excess of cancer cells (2:1)
Description: Reducing the expression of CD11b has become a promising target for immune modulation in anti-cancer therapies. For that reason, we decided to study the effect of our compounds on CD11b in THP-1 cells co-cultured with HT-29. We also determine the relative amount of CD80, a common surface marker for monocytes. This study was performed on the collected cell culture from each well and gating living THP-1 cell population.
To study the effect of the compounds on every biological target in co-cultured THP-1 immune cells with cancer cell line HT-29, the compounds were incubated for 24 h/48 h as described before.
To detect membrane CD11b and CD80, after the cell incubation, suspended THP-1 was collected from the cell culture of each sample well, fixed with 4% in PBS paraformaldehyde, and stained with FITC Mouse monoclonal Anti-Human CD80 (Sigma-Aldrich, S. Louis, MO, USA, SAB4700142) and Alexa Fluor® 647 Rabbit monoclonal Anti-CD11b (Merck, S. Louis, MO, USA, #MABF366).

[6] = tested on: LAT; experiment: Immunoblotting of OT-1 CTL signaling proteins: LAT; format: cell-based, mice; conditions: OT-1, 20 μM, 24 h
Description: (§6) We next studied the effect of our compounds on the signaling cascade downstream of the TCR. […] However, both the expression and phosphorylation of LCK were increased in response to all compounds. The effects on ZAP70 and LAT were more complex, with opposing effects on total protein expression versus phosphorylation. Thus, all compounds modulated signaling downstream of the TCR in a manner that is likely to impact T-cell activation and activity.
(§7) CD8+ cells were obtained from the inguinal, axillary, brachial, and mesenteric lymph nodes previously collected from OT-1 mice. Lymph node cells were isolated by mashing through a […] cell strainer. Cells were resuspended in IMDM cell media at a concentration of 0.3 million cells/mL. N4 ovalbumin peptide was added at a concentration of 10 nM, and cells were incubated for 48 h at 5% CO2, 37 °C. On day 2 from recollection, cells were pelleted at 1300 rpm for 5 min and washed with PBS to remove N4 peptide. The cell pellet was resuspended in fresh IMDM media in a new flask in a 0.3 million cells/mL and supplemented with IL-2 at 20 ng/mL. After incubation for a further 48 h (day 4), cells were re-seeded in fresh IMDM media at a concentration of 0.3 million cells/mL supplemented with IL-2 at 20 ng/mL. Cells were cultured for a further 48 h prior to use on day 6 in functional assays.
(§8) To study the effect of the compounds in the signaling pathway of CTLs, the compound was incubated for 24 h at 20 μM. After this time, cells were collected and washed twice in PBS and lysed in radioimmunoprecipitation assay (RIPA) lysis buffer (50 mM tris-HCl at pH 7.4, 150 mM sodium chloride, 5 mM EGTA, 0.1% SDS, 1% NP-40, and 1% deoxycholate) supplemented with a protease and phosphatase inhibitor cocktail (mini complete ULTRA Protease tablet and phosSTOP tablet from Roche, Basel, Switzerland). Lysates were clarified by high-speed centrifugation (17,000 rpm for 15 min at 4 °C). Protein concentration was measured using a Micro BCA Protein Assay (Thermo Scientific, Waltham, MA, USA), and 10 μg to 30 μg of total protein were supplemented with 2X SDS sample buffer [tris (pH 6.8), 20% glycerol, 5% SDS, b-mercaptoethanol, and bromophenol blue) and boiled at 95 °C for 5 min. […] Bound Ab was detected by incubation with anti-rabbit and anti-mouse horseradish peroxidase secondary Ab (Cell Signaling Technology) and visualized using the Bio-Rad ChemiDoc MP Imaging System.

[7] = tested on: LCK; experiment: Immunoblotting of OT-1 CTL signaling proteins: LCK; format: cell-based, mice; conditions: OT-1, 20 μM, 24 h
Description: as §6, §7, §8

[8] = MCF7, MTT, read-out: IC50 (μM) MCF-7
[9] = membrane THP-1, 1:5 HT-29/THP-1, 24 h
[10] = membrane THP-1, 2:1 HT-29/THP-1, 48 h

T1 sequence (Q9NZQ7 19-290): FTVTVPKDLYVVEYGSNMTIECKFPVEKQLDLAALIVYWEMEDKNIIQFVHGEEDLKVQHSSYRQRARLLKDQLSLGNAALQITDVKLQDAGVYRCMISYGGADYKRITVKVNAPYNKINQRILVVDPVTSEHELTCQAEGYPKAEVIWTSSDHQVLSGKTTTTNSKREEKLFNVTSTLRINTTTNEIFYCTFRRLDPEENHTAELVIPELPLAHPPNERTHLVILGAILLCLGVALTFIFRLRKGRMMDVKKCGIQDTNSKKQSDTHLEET

Row | Compound | Total PD-L1 (%) ([1]; HT-29, 20 µM) | IC50 ([2]; HT-29, MTT, 48 h of treatment) | SI (HT-29) (IC50HEK293/IC50HT-29) [2] | % PD-L1 Memb. [3] | % PD-L1 Total [3] | IC50 [4, 8] | SI (MCF-7) [4] | % CD11b [5, 9] | % CD11b [5, 10] | inhibition at 20 µM ([1]; HT-29, HT-29, 20 µM) | LAT protein expression (Western blot quantification) [6] | LCK protein expression (Western blot quantification) [7] | pY394-LCK protein expression (Western blot quantification) [7] | pY505-LCK protein expression (Western blot quantification) [7] | reduction of CD11b ([5]; 48 h) | pLAT protein expression (Western blot quantification) [6] | further results
1 | Cc1c(COc2ccc(CN3CCCCC3C(=O)O)cc2Br)cccc1-c1ccccc1 (centres unmarked) [BMS-8, reference compound] | 82 ± 21% | 19 ± 2 µM | 3 | 88 ± 11% | 197% | 20 ± 3 µM | 3 | 91 ± 1% | 80 ± 2% |  |  |  |  |  |  |  | 
2 | COc1ccc(COc2cccc(NC(=O)Nc3ccc(F)cc3)c2)cc1 [Compound 2] | 71 ± 15% | 5.5 ± 1.2 µM | >18 | 81 ± 10% | 62 ± 15% | 0.17 ± 0.03 µM | >580 | 92 ± 9% | 86 ± 3% | ~50% | 63 | 176 | 143 | 140 | about 20% |  | 
3 | COc1ccc(COc2cccc(NC(=O)Oc3ccccc3)c2)cc1 [Compound 14] | 68 ± 5% |  | >15 | 81 ± 8% | 85 ± 15% |  | >5 | 78 ± 11% | 81 ± 8% |  | 103 | 175 | 130 | 145 | about 20% | 21 | inhibition at 20 µM ([1]; HT-29, 20 µM): ~40%; IC50 ([2]; HT-29, 48 h): 6.8 ± 0.5 µM; IC50 ([4]; MCF7, read-out: IC50 (μM) MCF-7): 20 ± 9 µM
4 | COc1ccc(COc2cccc(NC(=O)Nc3ccc(Br)cc3)c2)cc1 [Compound 8] | 40 ± 2% | 11 ± 1 µM | >9 | 94 ± 12% | 87 ± 23% | 1.3 ± 0.4 µM | >77 | 91 ± 4% | 93 ± 25% | ~60% | 88 |  |  |  |  | 8 | 
5 | COc1ccc(COc2cccc(NC(=O)Nc3ccc(OC)cc3)c2)cc1 [Compound 11] | 118 ± 3% | 2 ± 1.2 µM | >50 | 100 ± 7% | 57 ± 15% | > 200 µM |  | 95 ± 6% | 83 ± 5% |  | 85 | 168 | 184 | 157 | about 20% | 10 | inhibition rate of PD-L1 ([1]; HT-29, 20 µM): no inhibitory effect; inhibition at 20 µM ([3]; MCF7, read-out: inhibition rate for total PD-L1): ~40%
